Measurements reported in patent US20130274284A1 (DR. REDDY'S LABORATORIES, INC., priority 2010, published 2013).

Test: storage stability with respect to degradation impurities (OXTP impurity)
Assay type: physicochemical
Conditions: for stability with respect to impurities such as OXTP impurity: stored in presence of desiccant

Row | SMILES | stability with respect to impurities such as OXTP impurity | degradation during storage leading to impurities such as OXTP impurity (during the storage)
1 | CC(=O)Oc1cc2c(s1)CCN(C(C(=O)C1CC1)c1ccccc1F)C2.Cl (racemic) [prasugrel hydrochloride, 5-[(1RS)-2-cyclopropyl-1-(2-fluorophenyl)-2-oxoethyl]-4,5,6,7-tetrahydrothieno[3,2-c]pyridin-2-yl acetate hydrochloride] | greater stability | –
2 | CC(=O)Oc1cc2c(s1)CCN(C(C(=O)C1CC1)c1ccccc1F)C2 (stereo not drawn) [prasugrel, 5-(2-cyclopropyl-1-(2-fluorophenyl)-2-oxoethyl)-4,5,6,7-tetrahydrothieno[3,2-c]pyridin-2-yl acetate] | greater stability | degrades during the storage
